# Laboratory results from patent publication US12599561B2, “Localized immunosuppression of allografts for peripheral nerve repair” (UNIVERSITY OF WYOMING, priority 2018, dated 2026).
# Experiments:
# [1] = system: DRGs, motor neurons, and Schwann cells; conditions: 72 h
# Protocol: It is contemplated that delivery of immunosuppressive agents function within a favorable therapeutic window. PNs are comprised of three major nervous system cell types, motor neurons, sensory neurons, and Schwann cells. […] FIG. 1B illustrates data regarding the toxicity of tacrolimus to DRGs, motor neurons, and Schwann cells. FIG. 1C illustrates data regarding the toxicity of prednisolone to DRGs, motor neurons, and Schwann cells.
# Cells (DRGs, motor neurons, and Schwann cells) were cultured for 72 hours in various concentration of the immunosuppressive drugs and viability was evaluated using the Alamar blue viability assay. ISV's were diluted into media using a maximum of 1% dimethylsulfoxide (DMSO).
# FIG. 2B illustrates data regarding the viability of DRGs, motor neurons, and Schwann cells cultured in about 10 μM tracrolimus with differing concentrations of prednisolone.
# immune cells = conditions: cited from earlier work
Structure (SMILES),Measures in vitro tolerated concentrations on PN cells [1],dose tolerated by the cells (up to) [1],effective dose for inhibiting activation and proliferation of immune cells (immune cells),in vitro effective concentration on immune cells (immune cells)
"C[C@]12C=CC(=O)C=C1CC[C@@H]1[C@@H]2[C@@H](O)C[C@@]2(C)[C@H]1CC[C@]2(O)C(=O)CO [Prednisolone, prednisolone]",200 µM,about 200 μM,greater than 240 μM,240 nM
"C=CC[C@@H]1/C=C(\C)C[C@H](C)C[C@H](OC)[C@H]2O[C@@](O)(C(=O)C(=O)N3CCCC[C@H]3C(=O)O[C@H](/C(C)=C/[C@@H]3CC[C@@H](O)[C@H](OC)C3)[C@H](C)[C@@H](O)CC1=O)[C@H](C)C[C@@H]2OC [Tacrolimus, tacrolimus]",10 to 25 µM,10 to 25 µM,50 to 100 µM,0.5 to 1.0 nM
